Measured values published in patent US20070043512A1, “Therapeutic and prophylactic compositions and uses therefor” (priority 2003, published 2007).
Values joined by “and” are separate entries in the source; they are usually repeats but may differ in a detail not shown here. Identical values can stand only once. “Also recorded” adds a separate entry of the source.

What was measured:
Assay type in all cases: cell-based, human
[1] = tested on: aP2 gene expression; assay: Real-time PCR, aP2 gene expression in NHBE cells; details: for Effect on aP2 expression: NHBE (HBE) cells, stimuli for 18 h, real-time PCR (FIG. 2); for Fold-Change aP2 gene expression (real-time PCR): NHBE cells, 10 ng/ml cytokine, 18 h, vs unstimulated, mean of two RNA sets used in arrays
Method: (§1) When NHBE cells were 80% confluent and between passage 7 and 8, they were washed in PBS (Gibco) and starved for 24 h in Clonetics bronchial epithelial cell basal medium (BEBM) containing 0.1% w/v BSA.
(§2) Total RNA was isolated from cells using the RNeasy Total RNA Isolation Kit (Qiagen, Chatswort, Calif.) or Trizol (Invitrogen, CA) as per the manufacturer's instructions.
(§3) cDNA was made using Reverse-IT RTase Blend Kit (ABgene, UK) or Avian myeloblastosis virus Reverse Transcriptase (Promega, Madison, Wis.) according to manufacturer's instructions. Oligo-p(dt)15 primer (Roche Molecular Biochemicals) was used at 1 μM in both cDNA preparation methods. Following cDNA synthesis, 1 μl of cDNA template was used for each PCR. Real-time PCR was conducted using Light Cycler-FastStart DNA Master SYBR Green I kit (Roche Molecular Biochemicals) according to manufacturer's specifications using 2 mM MgCl2 and 1 μM primers. Human aP2 forward and reverse primers and FABP-5 forward and primers were designed from Genbank sequences using Primer3 software (Rozen and Skaletsky, Methods Mol. Biol. 132: 365-386, 2000):
(§4) After an initial denaturation for 10 min at 95° C., the samples were run for 40 cycles at 95° C. (15 s), 63° C. (5 s), and 72° C. (10 s). At the end of each cycle, the fluorescence was measured in a single step in channel F1. After the 40th cycle, the specimens were heated to 95° C. and cooled to 65° C. for 15 s. All heating and cooling steps were performed with a slope of 20° C./sec. The temperature was then raised to 95° C. at a rate of 0.1° C./sec and fluorescence was measured continuously (channel F1) to obtain a melting curve for the PCR products. Each gene was normalized to a housekeeping gene GAPDH before fold change was calculated (using crossing point values) to account for variations between different samples. The aP2 PCR product was confirmed by size on a 2% w/v agarose gel and by sequencing at Sydney University Prince Alfred Macromolecular Analysis Centre, NSW, Australia.
Using the same RNA samples as were used for the microarray experiments, aP2 gene expression was analysed using real-time PCR. […] Data are the mean from the two sets of RNA that were used in the array experiments.

[2] = tested on: aP2 gene expression; assay: Real-time PCR, aP2 gene expression in NHBE cells; details: NHBE (HBE) cells, subsequent experiment
[3] = tested on: aP2 expression; assay: aP2 expression in THP-1 cells; details: 10 ng/ml IL-4, 10 ng/ml IL-13 or 28 ng/ml IFN-γ (FIG. 6)
Method: FIG. 6 is a graphical representation showing aP2 expression in THP-1 cells stimulated with (A) 10 ng/ml IL-4, 10 ng/ml IL-13 or 28 ng/ml IFN-γ or (B) 50 ng/ml PMA. The data are mean±SEM from three independent experiments.
To address this issue, the effect of IL-4, IL-13 and IFN-γ on expression of aP2 in the human monocyte cell line THP-1 was examined.

[4] = tested on: FABP-5 gene expression; assay: Real-time PCR, FABP-5 (mal1) gene expression in NHBE cells; details: for Effect on FABP-5 (mal1) expression, real-time PCR: NHBE (HBE) cells, 10 ng/ml (FIG. 3)
Method: as §1, §2, §3, §4

[5] = tested on: FABP-5 gene expression; assay: Microarray, FABP-5 gene expression in synovial fibroblasts (RA/OA synoviocytes); set-up: key: I, increased; D, decreased; NC, no change; details: 10 ng/ml, 4 h
[6] = tested on: aP2 protein expression; assay: Immunofluorescent staining of aP2 protein in NHBE cells; details: NHBE (HBE) cells, 10 ng/ml, 24 h
Method: NHBE cells were grown in chamber slides and treated with culture medium alone, or with medium supplemented with 10 ng/ml IL-4 or 10 ng/ml IL-13. After 24 h, the culture medium was removed and the cells were air-dried for 30 min. The cells were fixed in 1% v/v paraformaldehyde for 20 min at room temperature. The slides were washed in PBS and the cells were permeabilised in 70% v/v ethanol at −20° C. for 20 min. The cells were washed in PBS-Triton for 5 min, and then blocked for 60 min with 10% v/v normal goat serum in 2% v/v BSA/Tris-buffered saline (TBS). The normal goat serum was removed and […] (1:1000 dilution in 2% BSA/TBS) or rabbit isotype control (1:4 dilution; Zymed) was added. The slides were incubated overnight at room temperature, washed 3×5 min in TBS-Triton (TBS-T), and incubated with secondary Ab (TRITC-conjugated anti-rabbit Ig; dilution 1:100) for 1 h at room temperature. The slides were washed in TBS-T for 5 min, and cover-slipped after the addition of Vectashield. The slides were examined on a confocal microscope.

[7] = tested on: FABP-5 gene expression; assay: Microarray, FABP-5 gene expression in NHBE cells; set-up: key to Regulation of FABP-5 gene expression: I, increased; D, decreased; NC, no change; details: for Effect on FABP-5 (mal1) expression, microarray: NHBE (HBE) cells; for Fold change FABP-5 gene expression / Regulation of FABP-5 gene expression: NHBE, 10 ng/ml, 18 h, vs ctrl
Method: as §1
(§5) Depending on the quantity of RNA available, cRNA was prepared according to the GeneChip Expression Analysis Technical Manual (Array experiment 1; Affymetrix, Santa Clara, Calif.) or the cRNA methods published in Baugh et al., Nucleic Acids Res. 29(5): E29, 2001 (Array experiment 2). The GeneChip Expression Analysis protocol involved cDNA synthesis from 20 μg of total RNA using a poly(T) primer containing a T7 RNA polymerase promoter (Geneworks, Australia):
(§6) cRNA was transcribed from cDNA and biotinylated using the BioArray High Yield RNA Transcript Labeling Kit (Enzo Diagnostics, Farmingdale, N.Y.). Twenty micrograms of cRNA was fragmented by heating at 94° C. for 35 min in fragmentation buffer (40 mM Tris acetate (pH 8.1), 125 mM KOAc, 30 mM MgOAc) prior to hybridization. For the small-scale cRNA amplification (Baugh et al., 2001, supra), cDNA synthesis volumes were different from the GeneChip Expression Analysis Technical Manual but reaction component concentrations, incubation times and temperatures were conserved. Five hundred nanograms of RNA was used and 15 μg cRNA was fragmented prior to hybridization.
(§7) Hybridization cocktails were then made by adding fragmented cRNA, control cRNAs, grid alignment oligonucleotides and blocking reagents. These mixtures were hybridised overnight (˜16 h) to individual Test3 (Affymetrix) arrays at 45° C., under constant rotation at 60 rpm. Washing and staining of the hybridized arrays were performed by an Affymetrix Fluidics Station, according to the manufacturer's protocols. Fluorescent signals were measured on the arrays using the Agilent GeneArray Laser Scanner and gene transcript levels were determined and scaled to 150 using algorithms in MicroArray Analysis Suite Software 5.0 (Affymetrix). For each array experiment, the hybridization cocktails met the test three criteria (background less then 150, GAPDH and β-actin 3′/5′ ratios less then three and similar scaling factors between samples), and were used to probe Affymetrix U95A GeneChips. Relative mRNA expression levels on the IL-4 and IL-13 stimulated NHBE arrays were expressed as plus or minus fold changes when compared to the control NHBE array.
Positive/negative fold change indicates greater/lesser gene expression in the first-named array, respectively. I, increased; D, decreased; NC, no change. Where the same type of array comparison is listed more than once, this represents repeat experiments.

[8] = tested on: aP2 gene expression; assay: Affymetrix U95A microarray, aP2 gene expression in stimulated NHBE cells; set-up: key to Regulation of aP2 gene expression: I, increased; D, decreased; NC, no change; details: 18 h; for Fold-Change aP2 gene expression: NHBE cells, 10 ng/ml cytokine, vs unstimulated cells, mean of both micro-array experiments; for Fold change aP2 gene expression / Regulation of aP2 gene expression: NHBE, 10 ng/ml, vs ctrl, individual array comparisons
Method: NHBE primary cell lines were purchased from Clonetics (San Diego, Calif.). Both NHBE cell lines, lot 8F1142 and 7F1482, were isolated […]. NHBE cells were maintained in Clonetics bronchial epithelial growth media (BEGM), which included supplements of 52 μg/ml bovine pituitary extract, 0.5 μg/ml hydrocortisone, 0.5 μg/ml human recombinant epidermal growth factor, 0.5 μg/ml epinephrine, 10 μg/ml transferrin, 5 μg/ml insulin, 0.1 μg/ml retinoic acid, 6.5 μg/ml triiodothryonine, 50 μg/ml gentamycin and 50 μg/ml amphotericin B (Clonetics). Medium was replaced every three to four days. When confluent, cells were subcultured at a ratio of 1:3.
as §1
A preliminary time course experiment in IL-4 and IL-13 stimulated NHBE identified 18 h as a time point associated with strong gene regulation and this time point was selected for subsequent analysis. Gene expression in unstimulated- and IL-4- and IL-13-stimulated NHBE was measured using Affymetrix U95A Gene Chips. The experiment was performed twice, using two independent NHBE lines. One novel finding was increased expression of the adipocyte gene aP2 in the cytokine stimulated NHBE cells (Table 3).
NHBE cells were stimulated with 10 ng/ml IL-4 or 10 ng/ml IL-13. After 18 h, gene expression in these cells, and in unstimulated NHBE cells, was analysed using Affymetrix U95A chips. The fold-change in gene expression following cytokine stimulation compared to unstimulated NHBE cells is shown. Data are the mean of both micro-array experiments.
as §5, §6, §7
Regulation of aP2 gene expression was examined for all comparison arrays in which aP2 expression was detected. […]

[9] = tested on: FABP-5 gene expression; assay: Microarray, FABP-5 gene expression in bronchial smooth muscle cells (BSMC); set-up: key to Regulation of FABP-5 gene expression: I, increased; D, decreased; NC, no change; details: 10 ng/ml, 18 h, vs ctrl

CCCCCCCCCCCCCC(=O)O[C@@H]1[C@@H](C)[C@@]2(O)[C@@H](C=C(CO)C[C@]3(O)C(=O)C(C)=C[C@@H]23)[C@@H]2C(C)(C)[C@]12OC(C)=O [PMA, phorbol myristate acetate, reference compound]
Effect on aP2 expression [1]: slight down-regulation; also recorded: slight downregulation

Cc1cccc(Nc2cc(Cl)nc(SCC(=O)O)n2)c1C [WY14643]
Effect on aP2 expression [2]: little or no effect

IFN-γ: prototypic type 1 cytokine, 28 ng/ml
Effect on aP2 expression [1]: strongly down-regulated | Effect on aP2 expression ([1]; listed as IFNg): down-regulated | Effect on aP2 expression ([1]; listed as IFNγ): strongly downregulated | Effect on aP2 expression [3]: reduced expression | Effect on mal1 expression ([4]; HBE cells, summary statement, method not stated): down-regulated

IL-1: cytokine Interleukin (IL)-1β used as stimulus, 10 ng/ml
Effect on aP2 expression [1]: no effect | Regulation of FABP-5 gene expression ([5]; RA synoviocytes, vs RA ctrl): NC

IL-4: allergy-associated type-2 cytokine used as stimulus, 10 ng/ml (BD)
Fold-Change aP2 gene expression (real-time PCR) [1]: 65 | Effect on aP2 expression [3]: stimulated aP2 expression | Regulation of FABP-5 gene expression ([5]; RA synoviocytes, vs RA ctrl): NC | Effect on FABP-5 (mal1) expression, real-time PCR [4]: up-regulated; also recorded: upregulated | Intensity of aP2 staining vs unstimulated cells [6]: considerably greater | Nuclear localisation of aP2 [6]: significant nuclear localisation | Effect on FABP-5 (mal1) expression, microarray [7]: mildly up-regulated | Fold change FABP-5 gene expression [7]: 1.4 and 2 | Regulation of FABP-5 gene expression [7]: I | Fold-Change aP2 gene expression [8]: 33.4 | Fold change aP2 gene expression [8]: 48.5 and 18.4 | Regulation of aP2 gene expression [8]: I

IL-6: cytokine stimulus, 5 ng/ml (BD)
Effect on aP2 expression [1]: no effect

IL-13: allergy-associated type-2 cytokine used as stimulus, 10 ng/ml (BD)
Fold-Change aP2 gene expression (real-time PCR) [1]: 56 | Effect on aP2 expression [3]: stimulated aP2 expression | Fold change FABP-5 gene expression [9]: 1.7 | Regulation of FABP-5 gene expression [9]: NC and I | Effect on FABP-5 (mal1) expression, real-time PCR [4]: up-regulated; also recorded: upregulated | Intensity of aP2 staining vs unstimulated cells [6]: considerably greater | Nuclear localisation of aP2 [6]: significant nuclear localisation | Effect on FABP-5 (mal1) expression, microarray [7]: mildly up-regulated | Fold change FABP-5 gene expression [7]: 1.5 | Regulation of FABP-5 gene expression [7]: I and NC | Fold-Change aP2 gene expression [8]: 31.8 | Fold change aP2 gene expression [8]: 45.3 and 18.4 | Regulation of aP2 gene expression [8]: I

TNFα
Effect on aP2 expression [1]: no effect | Regulation of FABP-5 gene expression ([5]; OA synoviocytes, vs OA ctrl): NC | Regulation of FABP-5 gene expression ([5]; RA synoviocytes, vs RA ctrl): NC

B1: IL-10: cytokine stimulus, 10 ng/ml (BD) (protein, UniProt P22301 19-178, looked up)
Interleukin-10: SPGQGTQSENSCTHFPGNLPNMLRDLRDAFSRVKTFFQMKDQLDNLLLKESLLEDFKGYLGCQALSEMIQFYLEEVMPQAENQDPDIKAHVNSLGENLKTLRLRLRRCHRFLPCENKSKAVEQVKNAFNKLQEKGIYKAMSEFDIFINYIEAYMTMKIRN
Effect on aP2 expression [1]: no effect
